Data from patent US7288573B2, “Method of repelling insects” (priority 2001, dated 2007).
Where “and” joins values, the source holds several entries; their conditions need not be identical. Equal entries are not always repeated. Entries after “also recorded” stand apart in the source; their conditions may differ.

Tests used:
[1] = tested on: Culex spp.; assay: Mosquito repellency of 2-undecanone and 2-tridecanone, treated arm in cage (Example 6); type: in vivo; conditions: for No. landings: single replicates; for observed repellent / residual activity (words): observed up to 24 hours post-treatment
Excerpt: Cages. The same two mosquitoes cages described in Example 5 were used for this example. The cages were constructed using wood framing and fine mesh wire screen. The dimensions of each cage were 59 cm high×55 cm wide by 59 cm deep. A hinged access door was installed at the front of each chamber for insertion of the water-filled containers filled with mosquito pupae. Also present at the front of each chamber was a 9 cm diameter plastic tube (i.d.) for insertion of the arm of the investigator. The arm insertion tube was sealed with a rubber stopper when not in use.
Mosquitoes and Mosquito Rearing. Mosquitoes (Culex spp.) were obtained (as pupae and larvae) from Carolina Biological Supply Co., Burlington, N.C., USA in two successive shipments, so as to provide a continuing long term supply of fresh insects. Following their arrival, the mosquitoes were divided into approximately equal numbers in multiple water-filled containers and placed in the two cages described above. The larval and pupal cultures were fed with insect rearing compound. In addition, the water was changed regularly by filtration to minimize contamination and prevent overcrowding. Continuous culturing made it possible to increase the mosquito numbers to more than 100 insects per cage.
Test Compounds and Testing Schedule. Testing was done with two compounds, 2-undecanone, and 2-tridecanone, for repellent activity by treating one arm of the investigator with approximately 1 ml of the test solution. Following several minutes for solvent evaporation, the treated arm was inserted through the insertion tube for 5 minutes. The other arm was treated with isoprbpanol (control) or a different concentration of the compound, and inserted into the insertion tube of the adjacent chamber. Next, the behavior of the mosquitoes in response to the presence of the investigator's arms was noted. Mosquito behavior was recorded as 1) landing or attempting to land on the investigator's arm, or coming to rest on the wire screen immediately adjacent to the investigator's arm or hand, versus 2) dispersal away from the treated arm towards the opposite ends of the cage. The approximate number of mosquitoes present at the beginning of the observations was noted. For treatments with 2-undecanone, observations were made initially to confirm 100% repellent activity of the compound immediately after treatment but observations were not recorded. Recording of efficacy was delayed until 6 hours after treatment, and then repeated at 12 and 24 hours post-treatment. For treatment with 2-tridecanone, the observations commenced immediately after solvent drying; then, the observations were repeated (without re-treatment of the investigator's hand and arm) after 6 hours, 12 hours and 24 hours. Treatments were alternated between the different cages. […]
2-tridecanone was obtained as a solid. To prepare this compound for testing, it was subjected to gentle heating in a 37° C. water bath to liquefy it, and aliquots of the stock were diluted volume: volume with isopropanol to 50% concentration and 20% concentration. Sufficient pure compound was retained for direct application (undiluted).
Tests were done at concentrations of 100%, 50%, and 20% for each of the two compounds, as well as 20% DEET, and the isopropanol control.
Table 3 presents the efficacy found at the different time intervals for each of the compounds at the three different concentrations and for DEET. Efficacy was calculated according to the formula: [(no. landings/no. present in control)−(no. landings/no. present in experinental) divided by (no. landings/no. present in control)]×100.

[2] = tested on: Aedes albopictus; assay: One-minute biting counts on treated forearm (Example 7); type: in vivo
Protocol: This experiment was performed to evaluate the comparative repellency of 5% and 20% 2-undecanone in ethanol, 20% 2-tridecanone in isopropanol and Off!™ 14.25% DEET Insect Repellent aerosol against Aedes albopictus (Asian tiger mosquitoes) and Culex quinquefasciatus (southern house mosquitoes).
Three to four-day-old laboratory-reared female Ae. albopictus and Cx. quinquefasciatus were transferred by aspiration into eight cages measuring 10 inches high×10 inches wide×13 inches deep at a targeted stocking rate of 100 and 200, respectively. Four cages contained Ae. albopictus and four contained Cx. quinquefasciatus. A greater number of Cx. quinquefasciatus was used to compensate for lower biting activity anticipated for this species. The actual number of females per cage was lower than the target-stocking rate because of the high number of males that were inadvertently introduced into the cages. Each cage contained a screened back wall, clear Plexiglas top, stockinette entry sleeve and solid aluminum floor and sidewalls. The mosquitoes were fed water and sugar water prior to and between tests. The tests were conducted over four days, Aug. 7-10, 2001, with four men participating as testers. All testers washed both arms with a non-fragrance soap, rinsed and swabbed with 25% ethanol prior to applying treatments. Treatments were applied to the forearm in a region extending from the wrist to a point measured at 12″ back from the tip of the index finger on both arms. The 20% 2-tridecanone was not applied as uniformly as the other repellents because an insufficient quantity was available. Latex gloves were worn over the hands and replaced before each biting count. The control consisted of a soap wash, rinse and 25% ethanol swab and was conducted by the same person throughout the study. One-minute biting counts were recorded at 0, 1, 2, 4 & 6 hours post-treatment time intervals. All treatments were randomly assigned to each tester, two treatments per tester. Cage placement was also randomized at the beginning of each day of testing. Testers were rotated each day so that by the end of the study they had occupied each cage location. Each repellent was tested two times by three testers so that mean biting counts were based on six observations. A Hobo datalogger was used to monitor temperature and humidity throughout the study.
A balanced incomplete block design following American Society for Testing and Materials standards E 939-94 was employed. Data were normalized by square root transformation and submitted to analysis of variance and mean separation procedures via SS PC. Microsoft Excel 2000 pivot tables and charting functions were used to plot mean biting counts and standard errors by species and time interval for each treatment and control. Mean biting counts were transformed to percent protection or repellency by the following formula: Control−Treatment/Control×100.

[3] = 20% concentration, 6 hours after treatment
[4] = 20% concentration, 12 hours after treatment
[5] = 20% concentration, 24 hours after treatment
[6] = 50% concentration, 6 hours after treatment
[7] = 50% concentration, 6 hours after treatment, listed as IBI-246
[8] = 50% concentration, 12 hours after treatment
[9] = 50% concentration, 12 hours after treatment, listed as IBI-246
[10] = 50% concentration, 24 hours after treatment
[11] = 50% concentration, 24 hours after treatment, listed as IBI-246
[12] = 100% concentration, 6 hours after treatment
[13] = 100% concentration, 12 hours after treatment
[14] = 100% concentration, 24 hours after treatment

## CCCCCCCCCC(C)=O [2-undecanone]
[1]; 20% concentration, 0 hours
  Percent Efficacy Post-Treatment: 100%
[1]; 20% concentration, 6 hours
  Percent Efficacy Post-Treatment: 46.6%
[1]; [3]
  No. landings, Mean: 0.7
  Percent = [(No. landings/No. present)] × 100: 2.5%
  No. landings: 0 (2×) and 2
[1]; 20% concentration, 6 hours after treatment, listed as 2-Undecanone
  Percent = [(No. landings/No. present)] × 100: 7.1%
[1]; 20% concentration, 12 hours
  Percent Efficacy Post-Treatment: 0%
[1]; [4]
  No. landings, Mean: 5.0
  Percent = [(No. landings/No. present)] × 100: 17.1%
  No. landings: 5 and 6 and 4
[1]; 20% concentration, 12 hours after treatment, listed as 2-Undecanone
  Percent = [(No. landings/No. present)] × 100: 17.1%
[1]; 20% concentration, 24 hours
  Percent Efficacy Post-Treatment: 0%
[1]; [5]
  No. landings, Mean: 4.0
  Percent = [(No. landings/No. present)] × 100: 13.4%
  No. landings: 4
[1]; 20% concentration, 24 hours after treatment, listed as 2-Undecanone
  Percent = [(No. landings/No. present)] × 100: 13.8%
[1]; 50% concentration, 0 hours
  Percent Efficacy Post-Treatment: 100%
[1]; 50% concentration, 6 hours
  Percent Efficacy Post-Treatment: 83.5%
[1]; [6]
  No. landings, Mean: 1.3
  Percent = [(No. landings/No. present)] × 100: 1.1%
[1]; [7]
  Percent = [(No. landings/No. present)] × 100: 2.2%
  No. landings: 0 (3×) and 1 and 3 and 4
[1]; 50% concentration, 12 hours
  Percent Efficacy Post-Treatment: 65.3%
[1]; [8]
  No. landings, Mean: 7.2
  Percent = [(No. landings/No. present)] × 100: 5.8%
[1]; [9]
  Percent = [(No. landings/No. present)] × 100: 5.8%
  No. landings: 1 and 2 (2×) and 13 (2×) and 12
[1]; 50% concentration, 24 hours
  Percent Efficacy Post-Treatment: 56.5%
[1]; [10]
  No. landings, Mean: 7.5
  Percent = [(No. landings/No. present)] × 100: 5.7%
[1]; [11]
  Percent = [(No. landings/No. present)] × 100: 5.7%
  No. landings: 3 and 2 (2×) and 11 (2×) and 16
[1]; 100% concentration, 0 hours
  Percent Efficacy Post-Treatment: 100%
[1]; 100% concentration, 6 hours
  Percent Efficacy Post-Treatment: 100%
[1]; [12]
  No. landings, Mean: 0
  Percent = [(No. landings/No. present)] × 100: 0%
  No. landings: 0
[1]; 100% concentration, 12 hours
  Percent Efficacy Post-Treatment: 48.5%
[1]; [13]
  No. landings, Mean: 1.7
  Percent = [(No. landings/No. present)] × 100: 8.6%
  No. landings: 3 and 1 (2×)
[1]; 100% concentration, 12 hours after treatment, listed as 2-Undecanone
  Percent = [(No. landings/No. present)] × 100: 8.6%
[1]; 100% concentration, 24 hours
  Percent Efficacy Post-Treatment: 0%
[1]; [14]
  No. landings, Mean: 3.0
  Percent = [(No. landings/No. present)] × 100: 19.1%
  No. landings: 3
[1]; 100% concentration
  observed repellent / residual activity (words): absent after 24 hours post-treatment
[1]; 100% concentration, listed as 2-Undecanone
  observed repellent / residual activity (words): Comments: Strong avoidance response was still evident at 6 hours. Avoidance was much; also recorded: weaker after 12 hours and no obvious avoidance, no dispersal away from the treated
[1]; 100%, 50% and 20% concentrations, 0 to 24 hours
  overall repellent activity, comparison of the two compounds: greatest activity overall
[2]; 5% formulation
  mean biting count, mean separation test versus the 20% formulations: significantly (p=0.05) lower mean biting count than the other two formulations
[2]; 5% formulation, initial value
  repellency: 100%
[2]; 5% formulation, value to which repellency diminished
  repellency: upper 60 percentile
[2]; 20% formulations, post-treatment time intervals
  repellency: low repellency
[2]; Off! 14.25% DEET, 5% 2-undecanone
  performance during the first biting count: worked well
